Like-named read-outs stand apart in the source and are kept apart here.
Biological target: SARS-CoV-2 3CL-protease (Severe acute respiratory syndrome coronavirus 2, UniProt P0DTD1)
Assay: SARS-CoV-2 3C-Like (3CL) Protease Fluorescence Assay (FRET)
Format: biochemical
Conditions: test compounds 0-10 μM, duplicate
[1] = SARS-CoV-2 3CL-protease 10 nM, read-out: IC50
[2] = IC50, SARS-CoV-2 3CL-protease 10 nM

| SMILES | IC50 [1] [nM] | IC50 [2] [nM] |
| --- | --- | --- |
| CC(C)C[C@@H](C(=O)N1C[C@]2(C[C@H]1C#N)C(=O)Nc1ccccc12)N(C)C(=O)[C@H](C)NC(=O)C1(F)CC2(CCC2)C1 [Example 141] | < 100 | – |
| CC(C)C[C@@H](C(=O)N1C[C@]2(C[C@H]1C#N)C(=O)Nc1ccccc12)N(C)C(=O)[C@H](C)NC(=O)C(F)(F)CC(C)C [Example 142] | < 100 | – |
| CC(C)C[C@@H](C(=O)N1C[C@]2(C[C@H]1C#N)C(=O)Nc1ccccc12)N(C)C(=O)[C@H](C)NC(=O)C1(F)CCCC1 [Example 143] | < 100 | – |
| CC(C)C[C@@H](C(=O)N1C[C@]2(C[C@H]1C#N)C(=O)Nc1ccccc12)N(C)C(=O)[C@H](C)NC(=O)C(F)(F)C(F)(F)C(F)(F)C(F)(F)F [Example 144] | – | < 100 |
| CC(C)C[C@@H](C(=O)N1C[C@]2(C[C@H]1C#N)C(=O)Nc1ccccc12)N(C)C(=O)[C@H](C)NC(=O)c1ccc(F)cc1C(F)(F)F [Example 145] | < 100 | – |
| CC(C)C[C@@H](C(=O)N1C[C@]2(C[C@H]1C#N)C(=O)Nc1ccccc12)N(C)C(=O)[C@H](C)NC(=O)c1cccc(-c2ccc(F)cc2F)c1 [Example 146] | < 100 | – |
| CC(C)C[C@@H](C(=O)N1C[C@]2(C[C@H]1C#N)C(=O)Nc1ccccc12)N(C)C(=O)[C@H](C)NC(=O)c1cccc(-c2ccc(C(F)(F)F)cc2)c1 [Example 147] | < 100 | – |
| C[C@H](NC(=O)C(F)(F)C(F)(F)F)C(=O)N(C)[C@@H](CC1CC1)C(=O)N1C[C@]2(C[C@H]1C#N)C(=O)Nc1ccc(Br)cc12 [Example 167] | < 100 | – |
| CC(C)C[C@@H](C(=O)N1C[C@]2(C[C@H]1C#N)C(=O)Nc1ccc(Cl)cc12)N(C)C(=O)[C@H](C)NC(=O)C(F)(F)C(F)(F)F [Example 168] | < 100 | – |
| CC(C)C[C@@H](C(=O)N1C[C@]2(C[C@H]1C#N)C(=O)Nc1ccc(Br)cc12)N(C)C(=O)[C@H](C)NC(=O)C(F)(F)C(F)(F)F [Example 169] | < 100 | – |
| C[C@H](NC(=O)C(F)(F)C(F)(F)F)C(=O)N(C)[C@@H](CC1CC1)C(=O)N1C[C@]2(C[C@H]1C#N)C(=O)Nc1ccc(Cl)cc12 [Example 170] | < 100 | – |
| C[C@H](NC(=O)C(F)(F)C(F)(F)F)C(=O)N(C)[C@@H](CC(C)(C)C)C(=O)N1C[C@]2(C[C@H]1C#N)C(=O)Nc1ccc(Br)cc12 [Example 171] | < 100 | – |
| C[C@H](NC(=O)C(F)(F)C(F)(F)F)C(=O)N(C)[C@@H](CC(C)(C)C)C(=O)N1C[C@]2(C[C@H]1C#N)C(=O)N(Cl)c1ccc(Cl)cc12 [Example 172] | < 100 | – |
| C[C@H](NC(=O)C(F)(F)C(F)(F)F)C(=O)N(C)[C@@H](CC(C)(C)C)C(=O)N1C[C@]2(C[C@H]1C#N)C(=O)Nc1c(Cl)cc(Cl)cc12 [Example 173] | < 100 | – |
| C[C@H](NC(=O)C(F)(F)C(F)(F)F)C(=O)N(C)[C@@H](CC(C)(C)C)C(=O)N1C[C@]2(C[C@H]1C#N)C(=O)Nc1ccc(Cl)cc12 [Example 174] | < 100 | – |
| CN(C(=O)c1cc2c([nH]1)CN(C(=O)C(F)(F)F)CC2)[C@@H](CC(C)(C)C)C(=O)N1C[C@]2(C[C@H]1C#N)C(=O)Nc1ccccc12 [Example 175] | 100 to 1000 | – |
| CC(C)N1CCc2cc(C(=O)N(C)[C@@H](CC(C)(C)C)C(=O)N3C[C@]4(C[C@H]3C#N)C(=O)Nc3ccccc34)[nH]c2C1 [Example 176] | < 100 | – |
| CN(C(=O)[C@@H]1C[C@@H]2CCCC[C@@H]2N1C(=O)C(F)(F)F)[C@@H](CC(C)(C)C)C(=O)N1C[C@]2(C[C@H]1C#N)C(=O)Nc1ccccc12 [Example 177] | 100 to 1000 | – |
| CC(C)N1[C@H](C(=O)N(C)[C@@H](CC(C)(C)C)C(=O)N2C[C@]3(C[C@H]2C#N)C(=O)Nc2ccccc23)C[C@@H]2CCC[C@@H]21 [Example 178] | < 100 | – |
| CCN1C[C@H]2CCCC[C@H]2C[C@H]1C(=O)N(C)[C@@H](CC(C)(C)C)C(=O)N1C[C@]2(C[C@H]1C#N)C(=O)Nc1ccccc12 [Example 179] | < 100 | – |
| CC(C)N1[C@H](C(=O)N(C)[C@@H](CC(C)(C)C)C(=O)N2C[C@]3(C[C@H]2C#N)C(=O)Nc2ccccc23)C[C@@H]2CCCC[C@@H]21 [Example 180] | < 100 | – |
| CC(C)N1C[C@@H]2CCC[C@@H]2[C@H]1C(=O)N(C)[C@@H](CC(C)(C)C)C(=O)N1C[C@]2(C[C@H]1C#N)C(=O)Nc1ccccc12 [Example 181] | < 100 | – |
| CC(C)N1C[C@]2(C[C@H]1C(=O)N(C)[C@@H](CC(C)(C)C)C(=O)N1C[C@]3(C[C@H]1C#N)C(=O)Nc1ccccc13)C(=O)Nc1ccccc12 [Example 183] | 100 to 1000 | – |
| CC(C)N1c2ccccc2C[C@H]1C(=O)N(C)[C@@H](CC(C)(C)C)C(=O)N1C[C@]2(C[C@H]1C#N)C(=O)Nc1ccccc12 [Example 184] | < 100 | – |
| CC(C)C[C@@H](C(=O)N1C[C@]2(C[C@H]1C#N)C(=O)Nc1ccccc12)N(C)C(=O)[C@H](C)NC(=O)c1c(F)ccc2[nH]ccc12 [Example 185] | < 100 | – |
| CC(C)C[C@@H](C(=O)N1C[C@]2(C[C@H]1C#N)C(=O)Nc1ccccc12)N(C)C(=O)[C@H](C)NC(=O)c1cc2[nH]ccc2cc1F [Example 186] | < 100 | – |

| SMILES | IC50 [1] [nM] | IC50 [2] [nM] |
| --- | --- | --- |
| CC(C)C[C@@H](C(=O)N1C[C@]2(C[C@H]1C#N)C(=O)Nc1ccccc12)N(C)C(=O)[C@H](C)NC(=O)c1c(F)ccc2ccoc12 [Example 187] | < 100 | – |
| CC(C)C[C@@H](C(=O)N1C[C@]2(C[C@H]1C#N)C(=O)Nc1ccccc12)N(C)C(=O)[C@H](C)NC(=O)c1cc2occc2cc1F [Example 188] | < 100 | – |
| CC(C)C[C@@H](C(=O)N1C[C@]2(C[C@H]1C#N)C(=O)Nc1ccccc12)N(C)C(=O)[C@H](C)NC(=O)c1ccc2c(c1)OCC2 [Example 190] | < 100 | – |
| [2H]C([2H])([2H])N(C(=O)[C@H](C)NC(=O)C(F)(F)F)[C@@H](CCCC)C(=O)N1C[C@]2(C[C@H]1C#N)C(=O)Nc1ccccc12 [Example 191] | < 100 | – |
| [2H]C([2H])([2H])N(C(=O)[C@H](C)NC(=O)C(F)(F)C(F)(F)F)[C@@H](CCCC)C(=O)N1C[C@]2(C[C@H]1C#N)C(=O)Nc1ccccc12 [Example 192] | < 100 | – |
| CC[C@H](NC(=O)C(=O)Nc1c(F)cccc1C(F)(F)F)C(=O)N(C)[C@@H](CC(C)C)C(=O)N1C[C@]2(C[C@H]1C#N)C(=O)Nc1ccccc12 [Example 193] | < 100 | – |
| CC[C@H](NC(=O)c1ccc(F)cc1C(F)(F)F)C(=O)N(C)[C@@H](CC(C)C)C(=O)N1C[C@]2(C[C@H]1C#N)C(=O)Nc1ccccc12 [Example 194] | < 100 | – |
| C[C@H](NC(=O)C1(F)C(F)(F)C1(F)F)C(=O)N(C)[C@@H](CC1CC1)C(=O)N1C[C@]2(C[C@H]1C#N)C(=O)Nc1ccccc12 [Example 195] | < 100 | – |
| CC[C@H](NC(=O)C1(F)C(F)(F)C1(F)F)C(=O)N(C)[C@@H](CC(C)C)C(=O)N1C[C@]2(C[C@H]1C#N)C(=O)Nc1ccccc12 [Example 196] | < 100 | – |
| CC(C)C[C@@H](C(=O)N1C[C@]2(C[C@H]1C#N)C(=O)Nc1ccccc12)N(C)C(=O)[C@H](C)NC(=O)C(F)(F)C1CCCC1 [Example 197] | < 100 | – |
| C[C@H](NC(=O)C(F)(F)C(F)(F)C(F)(F)F)C(=O)N(C)[C@@H](C)C(=O)N1C[C@]2(C[C@H]1C#N)C(=O)Nc1ccccc12 [Example 198] | – | < 100 |
| CC[C@H](NC(=O)C(F)(F)F)C(=O)N(C)[C@@H](CC(C)C)C(=O)N1C[C@]2(C[C@H]1C#N)C(=O)Nc1ccccc12 [Example 199] | < 100 | – |
| CC[C@H](NC(=O)C(F)(F)C(F)(F)F)C(=O)N(C)[C@@H](CC(C)C)C(=O)N1C[C@]2(C[C@H]1C#N)C(=O)Nc1ccccc12 [Example 200] | < 100 | – |
| CC[C@H](NC(=O)C(F)(F)C(F)(F)C(F)(F)F)C(=O)N(C)[C@@H](CC(C)C)C(=O)N1C[C@]2(C[C@H]1C#N)C(=O)Nc1ccccc12 [Example 201] | – | < 100 |
| CC(C)C[C@@H](C(=O)N1C[C@]2(C[C@H]1C#N)C(=O)Nc1ccccc12)N(C)C(=O)[C@H](C)NC(=O)C(=O)Nc1c(F)cccc1C(F)(F)F [Example 202] | < 100 | – |
| C[C@H](NC(=O)C(F)(F)F)C(=O)N(C)[C@@H](CC1CC1)C(=O)N1C[C@]2(C[C@H]1C#N)C(=O)Nc1ccccc12 [Example 203] | < 100 | – |
| C[C@H](NC(=O)C(F)(F)F)C(=O)N(C)[C@@H](C)C(=O)N1C[C@]2(C[C@H]1C#N)C(=O)Nc1ccccc12 [Example 204] | < 100 | – |
| C[C@H](NC(=O)C(F)(F)C(F)(F)F)C(=O)N(C)[C@@H](CC1CC1)C(=O)N1C[C@]2(C[C@H]1C#N)C(=O)Nc1ccccc12 [Example 205] | < 100 | – |
| C[C@H](NC(=O)C(F)(F)C(F)(F)C(F)(F)F)C(=O)N(C)[C@@H](CC1CC1)C(=O)N1C[C@]2(C[C@H]1C#N)C(=O)Nc1ccccc12 [Example 206] | – | < 100 |
| C[C@H](NC(=O)C(F)(F)C(F)(F)F)C(=O)N(C)[C@@H](C)C(=O)N1C[C@]2(C[C@H]1C#N)C(=O)Nc1ccccc12 [Example 207] | < 100 | – |
| C[C@H](NC(=O)c1cc2c(F)cc(F)c(F)c2[nH]1)C(=O)N(C)[C@@H](CC(C)(C)C)C(=O)N1C[C@]2(C[C@H]1C#N)C(=O)Nc1ccccc12 [Example 208] | < 100 | – |
| C[C@H](NC(=O)C(C)(C)C)C(=O)N(C)[C@@H](CC(C)(C)C)C(=O)N1C[C@]2(C[C@H]1C#N)C(=O)Nc1ccccc12 [Example 209] | < 100 | – |
| C[C@H](NC(=O)c1cc(OC(F)(F)F)c2ncccc2c1)C(=O)N(C)[C@@H](CC(C)(C)C)C(=O)N1C[C@]2(C[C@H]1C#N)C(=O)Nc1ccccc12 [Example 210] | < 100 | – |
| C[C@H](NC(=O)c1ccc(Cl)cc1)C(=O)N(C)[C@@H](CC(C)(C)C)C(=O)N1C[C@]2(C[C@H]1C#N)C(=O)Nc1ccccc12 [Example 211] | < 100 | – |
| C[C@H](NC(=O)c1ccc(Cl)c(Cl)c1)C(=O)N(C)[C@@H](CC(C)(C)C)C(=O)N1C[C@]2(C[C@H]1C#N)C(=O)Nc1ccccc12 [Example 212] | < 100 | – |
| C[C@H](NC(=O)c1ccc(C(C)(C)C)cc1)C(=O)N(C)[C@@H](CC(C)(C)C)C(=O)N1C[C@]2(C[C@H]1C#N)C(=O)Nc1ccccc12 [Example 213] | < 100 | – |

— US20260138988A1, “Spiropyrrolidine Derived Antiviral Agents” (Enanta Pharmaceuticals, Inc., priority 2021, published 2026)
